Data on nine compounds can be found in ChEMBL document CHEMBL5465560, “Selectivity Literature for EUbOPEN Chemogenomic Library” (2024).

For assay [1], the target named is Serine/threonine-protein kinase Nek4 (Homo sapiens) (UniProt P51957). Put plainly: Selectivity interaction (SelectScreen profiling (Invitrogen)) EUB0000607a NEK4. The settings on record: at 2 µM.
The target in assay [2] is Mast/stem cell growth factor receptor Kit (Homo sapiens, UniProt P10721). The assay can be described thus: (§1) Selectivity interaction (SelectScreen profiling (Invitrogen)) EUB0000607a KIT. The settings on record: at 2 µM.
Mast/stem cell growth factor receptor Kit, sequence (P10721 whole entry): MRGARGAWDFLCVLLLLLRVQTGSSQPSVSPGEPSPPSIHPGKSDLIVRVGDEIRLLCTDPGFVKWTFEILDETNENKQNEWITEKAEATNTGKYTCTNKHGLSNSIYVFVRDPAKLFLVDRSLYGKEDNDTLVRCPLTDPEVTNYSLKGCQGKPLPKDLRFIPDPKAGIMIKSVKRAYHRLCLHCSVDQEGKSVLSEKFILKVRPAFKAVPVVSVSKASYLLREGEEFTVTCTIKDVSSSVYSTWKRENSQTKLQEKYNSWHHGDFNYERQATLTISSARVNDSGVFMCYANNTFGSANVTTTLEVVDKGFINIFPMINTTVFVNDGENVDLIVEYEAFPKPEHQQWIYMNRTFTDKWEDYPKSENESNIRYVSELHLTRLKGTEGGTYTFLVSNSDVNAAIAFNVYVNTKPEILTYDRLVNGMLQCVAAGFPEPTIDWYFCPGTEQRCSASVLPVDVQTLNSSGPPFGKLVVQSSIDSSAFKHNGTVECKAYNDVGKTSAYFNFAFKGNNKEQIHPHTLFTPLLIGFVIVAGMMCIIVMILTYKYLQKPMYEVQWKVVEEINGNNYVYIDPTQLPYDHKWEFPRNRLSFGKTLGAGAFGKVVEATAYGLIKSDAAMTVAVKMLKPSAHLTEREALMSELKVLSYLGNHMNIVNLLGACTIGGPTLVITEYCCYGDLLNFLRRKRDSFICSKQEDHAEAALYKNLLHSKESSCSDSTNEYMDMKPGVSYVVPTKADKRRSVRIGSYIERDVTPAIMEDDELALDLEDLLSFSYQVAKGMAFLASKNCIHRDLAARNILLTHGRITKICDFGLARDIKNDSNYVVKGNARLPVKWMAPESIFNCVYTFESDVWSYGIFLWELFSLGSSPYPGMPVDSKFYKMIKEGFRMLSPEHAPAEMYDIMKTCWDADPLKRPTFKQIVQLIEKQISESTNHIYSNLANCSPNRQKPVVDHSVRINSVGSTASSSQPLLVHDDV
In assay [3] the test system is Mast/stem cell growth factor receptor Kit (Homo sapiens), P10721 [T670I]. The assay is described as §1. The note with it: at 2 µM.
Mast/stem cell growth factor receptor Kit (Homo sapiens), P10721 [T670I], sequence (P10721 whole entry T670I): as the sequence (P10721 whole entry) above, with T670I counted along it
For assay [4], the system named is Epidermal growth factor receptor (Homo sapiens), P00533 [UNDEFINED MUTATION]. The settings on record: at 10 µM.
Epidermal growth factor receptor (Homo sapiens), P00533 [UNDEFINED MUTATION], sequence (P00533 whole entry, looked up, change not shown): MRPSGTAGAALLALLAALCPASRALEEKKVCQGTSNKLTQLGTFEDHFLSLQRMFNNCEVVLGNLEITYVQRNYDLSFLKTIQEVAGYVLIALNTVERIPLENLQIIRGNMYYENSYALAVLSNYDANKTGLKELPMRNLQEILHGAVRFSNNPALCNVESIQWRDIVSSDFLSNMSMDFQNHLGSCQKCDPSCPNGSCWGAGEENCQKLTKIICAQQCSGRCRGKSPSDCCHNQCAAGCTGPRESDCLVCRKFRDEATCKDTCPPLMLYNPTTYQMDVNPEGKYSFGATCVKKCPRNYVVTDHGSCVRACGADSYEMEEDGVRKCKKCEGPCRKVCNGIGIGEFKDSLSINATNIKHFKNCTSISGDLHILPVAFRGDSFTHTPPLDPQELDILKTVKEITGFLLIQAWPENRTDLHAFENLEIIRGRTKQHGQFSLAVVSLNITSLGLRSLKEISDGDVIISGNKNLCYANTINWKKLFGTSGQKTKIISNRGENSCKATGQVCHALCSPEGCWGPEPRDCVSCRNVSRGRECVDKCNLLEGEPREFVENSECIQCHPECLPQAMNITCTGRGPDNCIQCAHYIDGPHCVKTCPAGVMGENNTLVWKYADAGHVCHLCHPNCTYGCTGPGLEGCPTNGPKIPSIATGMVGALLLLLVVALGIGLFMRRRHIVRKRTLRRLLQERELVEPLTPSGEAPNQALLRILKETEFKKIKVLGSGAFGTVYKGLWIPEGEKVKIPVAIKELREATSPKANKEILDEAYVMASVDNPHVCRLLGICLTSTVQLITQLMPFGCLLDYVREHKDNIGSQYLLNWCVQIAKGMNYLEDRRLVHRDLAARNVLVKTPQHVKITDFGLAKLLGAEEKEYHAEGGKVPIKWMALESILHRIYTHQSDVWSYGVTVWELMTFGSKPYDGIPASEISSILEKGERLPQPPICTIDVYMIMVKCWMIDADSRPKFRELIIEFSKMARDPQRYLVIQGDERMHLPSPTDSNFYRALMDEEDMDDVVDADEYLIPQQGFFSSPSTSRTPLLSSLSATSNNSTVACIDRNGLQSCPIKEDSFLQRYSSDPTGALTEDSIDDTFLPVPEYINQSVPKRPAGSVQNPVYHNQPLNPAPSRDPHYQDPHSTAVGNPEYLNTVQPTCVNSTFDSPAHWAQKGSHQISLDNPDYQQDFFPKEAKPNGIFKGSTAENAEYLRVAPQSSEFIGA
Assay [5] concerns the target T1, Serine/threonine-protein kinase TAO2 (Homo sapiens) (UniProt Q9UL54).
T1 sequence (whole entry): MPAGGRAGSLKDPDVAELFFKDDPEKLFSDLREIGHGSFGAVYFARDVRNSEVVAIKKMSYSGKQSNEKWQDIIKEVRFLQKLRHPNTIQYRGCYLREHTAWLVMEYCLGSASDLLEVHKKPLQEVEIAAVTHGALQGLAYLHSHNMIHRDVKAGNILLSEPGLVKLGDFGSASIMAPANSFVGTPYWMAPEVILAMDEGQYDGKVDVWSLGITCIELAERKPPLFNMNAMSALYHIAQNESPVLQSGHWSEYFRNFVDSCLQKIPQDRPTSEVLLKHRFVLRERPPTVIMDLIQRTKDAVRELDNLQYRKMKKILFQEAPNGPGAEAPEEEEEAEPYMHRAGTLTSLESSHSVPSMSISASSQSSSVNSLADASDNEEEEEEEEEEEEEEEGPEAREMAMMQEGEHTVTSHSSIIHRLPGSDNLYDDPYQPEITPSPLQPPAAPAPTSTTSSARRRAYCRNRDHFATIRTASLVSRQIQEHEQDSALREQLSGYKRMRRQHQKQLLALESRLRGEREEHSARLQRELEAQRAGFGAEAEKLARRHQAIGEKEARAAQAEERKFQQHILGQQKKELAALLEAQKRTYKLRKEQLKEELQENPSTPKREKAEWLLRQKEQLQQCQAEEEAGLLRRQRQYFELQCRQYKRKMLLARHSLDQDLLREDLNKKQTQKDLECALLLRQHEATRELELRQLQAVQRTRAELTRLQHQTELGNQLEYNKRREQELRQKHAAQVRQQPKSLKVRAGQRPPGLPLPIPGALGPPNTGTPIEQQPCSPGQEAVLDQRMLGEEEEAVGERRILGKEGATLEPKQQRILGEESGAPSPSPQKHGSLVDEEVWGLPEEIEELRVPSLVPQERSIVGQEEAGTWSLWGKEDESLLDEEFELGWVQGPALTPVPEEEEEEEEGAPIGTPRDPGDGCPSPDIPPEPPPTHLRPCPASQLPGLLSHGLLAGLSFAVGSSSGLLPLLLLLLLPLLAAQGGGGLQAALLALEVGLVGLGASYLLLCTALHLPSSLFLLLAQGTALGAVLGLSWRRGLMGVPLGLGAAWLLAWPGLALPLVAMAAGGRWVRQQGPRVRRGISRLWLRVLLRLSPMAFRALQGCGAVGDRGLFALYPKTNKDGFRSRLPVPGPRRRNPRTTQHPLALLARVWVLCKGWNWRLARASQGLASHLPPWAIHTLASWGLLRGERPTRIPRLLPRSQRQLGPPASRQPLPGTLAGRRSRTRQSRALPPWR
The assay can be described thus: Selectivity interaction (KinomeScan (DiscoverX)) EUB0000045b TAOK2.

In assay [6] the target is T2, Mitogen-activated protein kinase kinase kinase 2 (Homo sapiens) (UniProt Q9Y2U5).
T2 sequence (whole entry): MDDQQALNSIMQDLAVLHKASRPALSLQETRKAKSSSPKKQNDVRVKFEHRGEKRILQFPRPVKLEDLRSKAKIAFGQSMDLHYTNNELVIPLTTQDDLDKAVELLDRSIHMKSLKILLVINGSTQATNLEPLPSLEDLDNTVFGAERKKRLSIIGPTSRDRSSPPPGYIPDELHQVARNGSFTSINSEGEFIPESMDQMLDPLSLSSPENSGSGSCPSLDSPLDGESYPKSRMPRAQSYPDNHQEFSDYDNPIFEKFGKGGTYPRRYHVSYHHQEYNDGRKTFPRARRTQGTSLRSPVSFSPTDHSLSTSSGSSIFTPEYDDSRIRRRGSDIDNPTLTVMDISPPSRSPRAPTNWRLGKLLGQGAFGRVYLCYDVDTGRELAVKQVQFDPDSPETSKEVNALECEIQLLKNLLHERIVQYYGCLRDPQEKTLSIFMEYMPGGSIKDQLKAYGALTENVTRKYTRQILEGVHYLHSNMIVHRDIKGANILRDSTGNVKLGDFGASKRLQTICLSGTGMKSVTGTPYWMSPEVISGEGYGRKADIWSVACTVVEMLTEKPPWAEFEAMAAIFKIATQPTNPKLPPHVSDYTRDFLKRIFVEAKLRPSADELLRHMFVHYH
Put plainly: Selectivity interaction (ProQinase) EUB0000171b MAP3K2.

For the next assay, the target named is Focal adhesion kinase 1 (Homo sapiens, UniProt Q05397).
Focal adhesion kinase 1, sequence (Q05397 whole entry): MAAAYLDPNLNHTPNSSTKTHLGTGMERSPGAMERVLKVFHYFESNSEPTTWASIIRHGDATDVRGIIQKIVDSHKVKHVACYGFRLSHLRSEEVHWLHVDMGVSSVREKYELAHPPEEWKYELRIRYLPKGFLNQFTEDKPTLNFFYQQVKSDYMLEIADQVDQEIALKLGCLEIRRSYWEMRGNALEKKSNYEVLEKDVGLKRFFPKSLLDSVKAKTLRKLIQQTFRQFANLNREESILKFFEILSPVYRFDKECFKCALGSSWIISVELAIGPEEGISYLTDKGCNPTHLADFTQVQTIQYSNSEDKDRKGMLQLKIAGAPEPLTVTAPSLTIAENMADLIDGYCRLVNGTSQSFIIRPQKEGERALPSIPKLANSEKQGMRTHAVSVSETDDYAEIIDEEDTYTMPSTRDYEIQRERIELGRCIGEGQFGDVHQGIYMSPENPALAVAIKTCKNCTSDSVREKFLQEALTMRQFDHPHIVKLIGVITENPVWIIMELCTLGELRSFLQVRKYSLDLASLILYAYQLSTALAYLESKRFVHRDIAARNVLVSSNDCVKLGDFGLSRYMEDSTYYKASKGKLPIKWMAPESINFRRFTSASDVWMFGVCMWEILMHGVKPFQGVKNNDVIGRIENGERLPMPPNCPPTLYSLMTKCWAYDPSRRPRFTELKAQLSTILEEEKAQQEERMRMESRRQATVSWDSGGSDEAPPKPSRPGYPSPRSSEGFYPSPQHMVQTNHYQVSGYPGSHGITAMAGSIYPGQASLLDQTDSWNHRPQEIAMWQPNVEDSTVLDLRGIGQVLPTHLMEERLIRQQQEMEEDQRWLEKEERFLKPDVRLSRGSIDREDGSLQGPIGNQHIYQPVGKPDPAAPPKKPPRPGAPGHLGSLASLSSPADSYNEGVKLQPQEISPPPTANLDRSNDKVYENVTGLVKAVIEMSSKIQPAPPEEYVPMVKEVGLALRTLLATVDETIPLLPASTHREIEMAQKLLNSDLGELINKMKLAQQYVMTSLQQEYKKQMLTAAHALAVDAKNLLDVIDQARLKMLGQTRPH
The target of assay [7] is Bone morphogenetic protein receptor type-1B (Homo sapiens, UniProt O00238). The assay can be described thus: Selectivity interaction (KinomeScan (DiscoverX)) EUB0000655a BMPR1B. The note with it: at 10 µM.
Bone morphogenetic protein receptor type-1B, sequence (O00238 whole entry): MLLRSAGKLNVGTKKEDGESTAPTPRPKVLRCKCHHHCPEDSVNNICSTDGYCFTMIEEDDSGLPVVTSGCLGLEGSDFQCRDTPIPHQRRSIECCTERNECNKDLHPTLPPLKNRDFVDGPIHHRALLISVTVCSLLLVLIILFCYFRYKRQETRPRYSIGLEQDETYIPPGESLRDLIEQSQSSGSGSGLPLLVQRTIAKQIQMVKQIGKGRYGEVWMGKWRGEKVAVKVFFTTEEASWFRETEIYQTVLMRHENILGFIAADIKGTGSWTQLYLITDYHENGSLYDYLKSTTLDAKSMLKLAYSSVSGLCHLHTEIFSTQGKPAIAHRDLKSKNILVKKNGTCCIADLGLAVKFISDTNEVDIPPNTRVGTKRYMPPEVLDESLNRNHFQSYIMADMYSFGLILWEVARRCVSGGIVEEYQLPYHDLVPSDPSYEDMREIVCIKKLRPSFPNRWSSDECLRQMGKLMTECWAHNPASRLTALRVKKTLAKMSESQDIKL
Assay [8] concerns the target Dual specificity protein kinase CLK1 (Homo sapiens, UniProt P49759). The assay can be described thus: Selectivity interaction (KinomeScan (DiscoverX)) EUB0000618a CLK1. The note with it: at 10 µM.
Assay [9] concerns the target Interleukin-1 receptor-associated kinase 1 (Homo sapiens) (UniProt P51617). The assay can be described thus: Selectivity interaction (KinomeScan (DiscoverX)) EUB0000092b IRAK1. The settings on record: at 10 µM.
For assay [10], the target named is T3, Muscarinic acetylcholine receptor M2 (Homo sapiens) (UniProt P08172).
T3 sequence (whole entry): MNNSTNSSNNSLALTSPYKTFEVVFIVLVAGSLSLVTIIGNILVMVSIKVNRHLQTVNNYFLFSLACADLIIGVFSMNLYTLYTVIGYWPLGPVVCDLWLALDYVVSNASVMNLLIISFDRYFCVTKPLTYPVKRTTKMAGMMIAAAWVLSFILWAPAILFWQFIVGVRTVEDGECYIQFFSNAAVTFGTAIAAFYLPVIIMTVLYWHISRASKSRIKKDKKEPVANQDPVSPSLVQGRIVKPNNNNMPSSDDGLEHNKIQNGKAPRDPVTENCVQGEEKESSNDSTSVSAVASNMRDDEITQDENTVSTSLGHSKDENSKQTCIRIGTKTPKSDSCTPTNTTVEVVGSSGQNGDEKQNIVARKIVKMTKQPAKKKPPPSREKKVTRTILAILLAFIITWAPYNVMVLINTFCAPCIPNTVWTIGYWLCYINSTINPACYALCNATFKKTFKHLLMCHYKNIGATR
Put plainly: Selectivity interaction (GPCR panel (PDSP screen)) EUB0001079a CHRM2. The note with it: at 10 µM.

Some results are limits rather than exact numbers.

Dual specificity protein kinase CLK1, sequence (P49759 whole entry, looked up): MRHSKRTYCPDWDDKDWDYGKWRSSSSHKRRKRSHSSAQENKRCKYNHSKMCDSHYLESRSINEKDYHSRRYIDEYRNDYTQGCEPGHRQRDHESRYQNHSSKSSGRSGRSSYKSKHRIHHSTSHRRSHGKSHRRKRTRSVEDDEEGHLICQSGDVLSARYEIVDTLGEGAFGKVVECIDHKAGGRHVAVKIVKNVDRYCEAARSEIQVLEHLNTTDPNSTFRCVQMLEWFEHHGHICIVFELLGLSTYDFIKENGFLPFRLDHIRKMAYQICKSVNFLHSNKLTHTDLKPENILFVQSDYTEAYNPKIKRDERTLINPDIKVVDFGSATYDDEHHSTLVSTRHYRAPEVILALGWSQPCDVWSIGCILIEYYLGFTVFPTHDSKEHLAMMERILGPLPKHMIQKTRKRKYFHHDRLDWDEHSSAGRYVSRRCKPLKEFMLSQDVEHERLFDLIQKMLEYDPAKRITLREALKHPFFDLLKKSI
Interleukin-1 receptor-associated kinase 1 (Homo sapiens), sequence (P51617 whole entry, looked up): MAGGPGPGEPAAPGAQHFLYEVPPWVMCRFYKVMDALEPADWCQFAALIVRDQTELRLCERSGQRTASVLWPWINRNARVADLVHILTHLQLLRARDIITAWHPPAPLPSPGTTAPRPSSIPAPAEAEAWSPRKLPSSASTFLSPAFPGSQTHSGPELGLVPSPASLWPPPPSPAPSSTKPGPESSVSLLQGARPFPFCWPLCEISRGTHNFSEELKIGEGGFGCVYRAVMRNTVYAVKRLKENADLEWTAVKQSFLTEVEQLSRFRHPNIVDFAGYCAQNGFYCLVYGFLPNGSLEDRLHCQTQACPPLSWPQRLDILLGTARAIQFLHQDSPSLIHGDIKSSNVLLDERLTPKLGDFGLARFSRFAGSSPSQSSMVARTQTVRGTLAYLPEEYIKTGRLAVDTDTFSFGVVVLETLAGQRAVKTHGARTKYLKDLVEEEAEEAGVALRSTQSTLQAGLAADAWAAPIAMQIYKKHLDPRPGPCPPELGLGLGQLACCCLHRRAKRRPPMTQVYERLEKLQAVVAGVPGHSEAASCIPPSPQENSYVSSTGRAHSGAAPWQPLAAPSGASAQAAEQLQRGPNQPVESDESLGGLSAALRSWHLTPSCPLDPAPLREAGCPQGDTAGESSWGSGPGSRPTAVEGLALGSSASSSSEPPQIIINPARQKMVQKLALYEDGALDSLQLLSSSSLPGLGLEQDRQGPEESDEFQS

As for `CNC(=O)Nc1ccc(-c2nc(N3CC4CCC(C3)O4)c3cnn(C4CCC5(CC4)OCCO5)c3n2)cc1`, the % of inhibition in assay [1] amounted to 7%; in assay [2], 10%; in [3], 7%.
In assay [4], `Cc1cc([C@@H](C)Nc2ccccc2C(=O)O)c2nc(N3CCOCC3)cc(=O)n2c1` [AZD-6482] came in with a % of control of 100%.
For the compound `C=CC(=O)Nc1cc(-n2c(=O)ccc3cnc4ccc(-c5ccc(NS(C)(=O)=O)cc5)cc4c32)ccc1C`, the % of control in assay [5] (at 1 µM) worked out at 80%; in assay [5] (at 10 µM), 100%.
As to `C=CC(=O)Nc1cccc(C(=O)Nc2ccc(Nc3cc(-c4[nH]c(SC)nc4C)ccn3)cc2)c1`, the % of control in assay [6] (at 1 µM) was 99%; in assay [6] (at 5 µM), 88%.
As usually defined, the IC50 is the midpoint of a concentration-inhibition curve. A higher IC50 goes with a need for much substance. As to `CCc1cccc(CC)c1NC(=O)c1nn(C)c2c1CCc1cnc(Nc3ccc(C(=O)NC4CCN(C)CC4)cc3OC(F)(F)F)nc1-2`, the IC50 against Focal adhesion kinase 1 is > 10 µM.
On to `CN(C)CCOc1ccc(-c2nc(-c3ccncc3)c(-c3ccc4c(c3)CC/C4=N\O)[nH]2)cc1`, for which, in assay [7], the % of control came out at 26%.
On to `O[C@H]1CC[C@H](Nc2ncc3nc(Nc4c(F)cc(F)cc4F)n([C@H]4CCOC4)c3n2)CC1`, for which the % of control in assay [8] was 79%.
Regarding `CCC(=O)N1CCN(c2ccc(-n3c(=O)ccc4cnc5ccc(-c6cnc7ccccc7c6)cc5c43)cc2C(F)(F)F)CC1`, the % of control in [9] was 100%.
With `Nc1cnc(N2CCc3cc(S(=O)(=O)Nc4c(F)cc(Cl)cc4F)cc(N4CCCC4=O)c32)nc1` [TP-020n], the % of inhibition in assay [10] came out at 3.7%.
